For orientation: EC50 means the midpoint of the concentration-response curve. The low end stands for greater potency, the high end for weaker potency.

Bounds are passed on as bounds.

The record followed here is patent publication US9505762B2, “Purine derivatives as CB2 receptor agonists” (Hoffmann-La Roche Inc., priority 2013, dated 2016).

In one test the target is human CB1 receptors (Homo sapiens (Human), UniProt P21554). Kind of test: functional cAMP assay, CB1. It is filed as cell-based. Particulars: CHO cells expressing human CB1. How it is done:
(§1) The growth medium was exchanged with Krebs Ringer Bicarbonate buffer with 1 mM IBMX and incubated at 30° C. for 30 min. Compounds were added to a final assay volume of 100 μl and incubated for 30 min at 30° C. Using the cAMP-Nano-TRF detection kit the assay (Roche Diagnostics) was stopped by the addition of 50 μl lysis reagent (Tris, NaCl, 1.5% Triton X100, 2.5% NP40, 10% NaN3) and 50 μl detection solutions (20 μM mAb Alexa700-cAMP 1:1, and 48 μM Ruthenium-2-AHA-cAMP) and shaken for 2 h at room temperature. The time-resolved energy transfer is measured by a TRF reader (Evotec Technologies GmbH), equipped with a ND:YAG laser as excitation source. The plate is measured twice with the excitation at 355 nm and at the emission with a delay of 100 ns and a gate of 100 ns, total exposure time 10 s at 730 (bandwidth 30 nm) or 645 nm (bandwidth 75 nm), respectively.
(§2) EC50 values were determined using Activity Base analysis (ID Business Solution, Limited).
Background: Changes in cAMP serve as a functional read-out for many G protein-coupled receptors.

A further test deals with human CB2 receptors (Homo sapiens (Human), UniProt P34972). Kind of test: functional cAMP assay, CB2. It is filed as cell-based. Particulars: CHO cells expressing human CB2. How it is done:
as §1, §2

human CB2 receptors, sequence (P34972 whole entry): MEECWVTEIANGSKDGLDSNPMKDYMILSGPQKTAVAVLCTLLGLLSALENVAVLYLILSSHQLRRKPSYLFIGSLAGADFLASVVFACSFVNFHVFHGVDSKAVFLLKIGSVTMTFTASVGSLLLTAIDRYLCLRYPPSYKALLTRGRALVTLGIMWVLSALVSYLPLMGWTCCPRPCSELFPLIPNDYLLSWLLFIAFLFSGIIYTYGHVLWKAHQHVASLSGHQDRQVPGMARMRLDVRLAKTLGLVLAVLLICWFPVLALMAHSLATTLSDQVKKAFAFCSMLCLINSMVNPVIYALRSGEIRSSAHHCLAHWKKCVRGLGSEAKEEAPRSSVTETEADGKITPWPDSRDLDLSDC
human CB1 receptors, sequence (P21554 whole entry): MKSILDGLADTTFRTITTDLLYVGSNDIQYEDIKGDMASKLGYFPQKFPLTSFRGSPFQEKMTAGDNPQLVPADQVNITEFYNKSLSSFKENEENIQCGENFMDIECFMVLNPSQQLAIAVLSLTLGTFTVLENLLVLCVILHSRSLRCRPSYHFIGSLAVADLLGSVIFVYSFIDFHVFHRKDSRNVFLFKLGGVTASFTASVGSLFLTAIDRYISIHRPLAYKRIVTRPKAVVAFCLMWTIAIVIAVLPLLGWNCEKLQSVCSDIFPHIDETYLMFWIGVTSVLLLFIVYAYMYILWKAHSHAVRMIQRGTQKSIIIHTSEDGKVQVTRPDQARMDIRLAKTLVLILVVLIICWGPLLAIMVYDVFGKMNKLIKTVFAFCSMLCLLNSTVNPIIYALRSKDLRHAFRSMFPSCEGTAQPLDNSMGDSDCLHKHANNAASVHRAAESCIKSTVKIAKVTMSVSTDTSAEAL

`CC(=O)N[C@H]1CCN(c2nc(C(C)(C)C)nc3c2ncn3Cc2ncccc2Cl)C1` [Example 54, N—[(S)-1-[2-tert-butyl-9-[(3-chloropyridin-2-yl)methyl]purin-6-yl]pyrrolidin-3-yl]acetamide]: the figures for the 50% effective concentration (EC50) at human CB1 receptors and on human CB2 receptors were over 10 µM and 0.388 µM, respectively.
The corresponding values for `CC(C)(C)c1nc(N2CCC3(COC3)C2)c2ncn(Cc3ccccc3Cl)c2n1` [Example 56, 7-[2-tert-butyl-9-[(2-chlorophenyl)methyl]purin-6-yl]-2-oxa-7-azaspiro[3.4]octane] are over 10 µM and 0.0558 µM.
Regarding `CC(C)(C)c1nc(N2CCC3(COC3)C2)c2ncn(Cc3cccc(Cl)c3)c2n1` [Example 57, 7-[2-tert-butyl-9-[(3-chlorophenyl)methyl]purin-6-yl]-2-oxa-7-azaspiro[3.4]octane], the values for the EC50 on human CB1 receptors and on human CB2 receptors were over 10 µM and 0.467 µM, respectively.
Turning to `CC(C)(C)c1nc(N2CCC3(COC3)C2)c2ncn(Cc3ccc(Cl)cc3)c2n1` [Example 58, 7-[2-tert-butyl-9-[(4-chlorophenyl)methyl]purin-6-yl]-2-oxa-7-azaspiro[3.4]octane], the EC50 at human CB1 receptors is over 10 µM; on human CB2 receptors it was 0.506 µM.
The corresponding values for `CC(C)(C)c1nc(N2CCC3(COC3)C2)c2ncn(Cc3ccccc3C(F)(F)F)c2n1` [Example 59, 7-[2-tert-butyl-9-[[2-(trifluoromethyl)phenyl]methyl]purin-6-yl]-2-oxa-7-azaspiro[3.4]octane] are over 10 µM and 0.0167 µM.
The corresponding values for `CC(C)(C)c1nc(N2CCC3(COC3)C2)c2ncn(Cc3ccccc3S(C)(=O)=O)c2n1` [Example 60, 7-[2-tert-butyl-9-[(2-methylsulfonylphenyl)methyl]purin-6-yl]-2-oxa-7-azaspiro[3.4]octane] are over 10 µM and 0.175 µM.
With `CC(C)(C)c1nc(N2CCC3(COC3)C2)c2ncn(Cc3cccnc3Cl)c2n1` [Example 61, 7-[2-tert-butyl-9-[(2-chloropyridin-3-yl)methyl]purin-6-yl]-2-oxa-7-azaspiro[3.4]octane], the EC50 at human CB1 receptors was over 10 µM; at human CB2 receptors, 0.0296 µM.
Consider `Cc1nonc1Cn1cnc2c(N3CCC4(COC4)C3)nc(C(C)(C)C)nc21` [Example 62, 7-[2-tert-butyl-9-[(4-methyl-1,2,5-oxadiazol-3-yl)methyl]purin-6-yl]-2-oxa-7-azaspiro[3.4]octane], for which the 50% effective concentration (EC50) at human CB1 receptors was over 10 µM; on human CB2 receptors it was 0.146 µM.
Turning to `COCCn1cnc2c(N3CCC4(COC4)C3)nc(C(C)(C)C)nc21` [Example 63, 7-[2-tert-butyl-9-(2-methoxyethyl)purin-6-yl]-2-oxa-7-azaspiro[3.4]octane], the EC50 was over 10 µM at human CB1 receptors and 0.661 µM at human CB2 receptors.
The corresponding values for `CC1(O)CCN(c2nc(C(C)(C)C)nc3c2ncn3Cc2ccccc2Cl)C1` (stereo not drawn) [Example 64, 1-[2-tert-butyl-9-[(2-chlorophenyl)methyl]purin-6-yl]-3-methylpyrrolidin-3-ol] are over 10 µM and 0.0134 µM.
In the case of `CC1(O)CCN(c2nc(C(C)(C)C)nc3c2ncn3Cc2cccc(Cl)c2)C1` (stereo not drawn) [Example 65, 1-[2-tert-butyl-9-[(3-chlorophenyl)methyl]purin-6-yl]-3-methylpyrrolidin-3-ol], the EC50 at human CB1 receptors was over 10 µM; at human CB2 receptors, 0.0916 µM.
On to `CC1(O)CCN(c2nc(C(C)(C)C)nc3c2ncn3Cc2ccccc2C(F)(F)F)C1` (stereo not drawn) [Example 67, 1-[2-tert-butyl-9-[[2-(trifluoromethyl)phenyl]methyl]purin-6-yl]-3-methylpyrrolidin-3-ol], for which the EC50 on human CB1 receptors is over 10 µM; on human CB2 receptors, 0.009 µM.
Taken in the same sequence, the figures for `CC1(O)CCN(c2nc(C(C)(C)C)nc3c2ncn3Cc2cccnc2Cl)C1` (stereo not drawn) [Example 68, 1-[2-tert-butyl-9-[(2-chloropyridin-3-yl)methyl]purin-6-yl]-3-methylpyrrolidin-3-ol] were over 10 µM and 0.0248 µM.
As for `CC1(O)CCN(c2nc(C(C)(C)C)nc3c2ncn3Cc2ncccc2Cl)C1` (stereo not drawn) [Example 69, 1-[2-tert-butyl-9-[(3-chloropyridin-2-yl)methyl]purin-6-yl]-3-methylpyrrolidin-3-ol], the EC50 on human CB1 receptors is over 10 µM; on human CB2 receptors, 0.0468 µM.
As for `CC1(O)CCN(c2nc(C(C)(C)C)nc3c2ncn3Cc2ccccc2S(C)(=O)=O)C1` (stereo not drawn) [Example 74, 1-[2-tert-butyl-9-[(2-methylsulfonylphenyl)methyl]purin-6-yl]-3-methylpyrrolidin-3-ol], the half-maximal effective concentration (EC50) on human CB1 receptors was over 10 µM; at human CB2 receptors, 0.0884 µM.
Take `CC(=O)N[C@H]1CCN(c2nc(C(C)(C)C)nc3c2ncn3Cc2c[nH]nc2C(F)(F)F)C1` [Example 75, N—[(S)-1-[2-tert-butyl-9-[[3-(trifluoromethyl)-1H-pyrazol-4-yl]methyl]purin-6-yl]pyrrolidin-3-yl]acetamide]: the half-maximal effective concentration (EC50) is over 10 µM at human CB1 receptors and 0.28 µM at human CB2 receptors.
The corresponding values for `CC(C)(C)c1nc(N2CCC3(COC3)C2)c2ncn(Cc3c[nH]nc3C(F)(F)F)c2n1` [Example 76, 7-[2-tert-butyl-9-[[3-(trifluoromethyl)-1H-pyrazol-4-yl]methyl]purin-6-yl]-2-oxa-7-azaspiro[3.4]octane] are over 10 µM and 0.153 µM.
The corresponding values for `CC(=O)N[C@H]1CCN(c2nc(C(C)(C)C)nc3c2ncn3Cc2n[nH]cc2C(F)(F)F)C1` [Example 77, N—[(S)-1-[2-tert-butyl-9-[[4-(trifluoromethyl)-1H-pyrazol-3-yl]methyl]purin-6-yl]pyrrolidin-3-yl]acetamide] are over 10 µM and 0.205 µM.
Taken in the same sequence, the figures for `CC(C)(C)c1nc(N2CCC3(COC3)C2)c2ncn(Cc3n[nH]cc3C(F)(F)F)c2n1` [Example 78, 7-[2-tert-butyl-9-[[4-(trifluoromethyl)-1H-pyrazol-3-yl]methyl]purin-6-yl]-2-oxa-7-azaspiro[3.4]octane] were over 10 µM and 0.0175 µM.
Regarding `Cc1nnc(Cn2cnc3c(N4CC(F)(F)C(F)(F)C4)nc(C(C)(C)C)nc32)o1` [Example 79, 2-[[2-tert-butyl-6-(3,3,4,4-tetrafluoropyrrolidin-1-yl)purin-9-yl]methyl]-5-methyl-1,3,4-oxadiazole], the EC50 on human CB1 receptors was over 10 µM; at human CB2 receptors, 0.116 µM.
With `Cc1noc(Cn2cnc3c(N4CC(F)(F)C(F)(F)C4)nc(C(C)(C)C)nc32)n1` [Example 80, 5-[[2-tert-butyl-6-(3,3,4,4-tetrafluoropyrrolidin-1-yl)purin-9-yl]methyl]-3-methyl-1,2,4-oxadiazole], the values for the 50% effective concentration (EC50) at human CB1 receptors and on human CB2 receptors were over 10 µM and 0.179 µM, respectively.
Regarding `COCCn1cnc2c(N3CC(F)(F)C(F)(F)C3)nc(C(C)(C)C)nc21` [Example 83, 2-tert-butyl-9-(2-methoxyethyl)-6-(3,3,4,4-tetrafluoropyrrolidin-1-yl)purine], the EC50 at human CB1 receptors was over 10 µM; on human CB2 receptors, 0.0646 µM.
Take `CC1(O)CCN(c2nc(C(C)(C)C)nc3c2ncn3Cc2c[nH]nc2C(F)(F)F)C1` (stereo not drawn) [Example 84, 1-[2-tert-butyl-9-[[3-(trifluoromethyl)-1H-pyrazol-4-yl]methyl]purin-6-yl]-3-methylpyrrolidin-3-ol]: the results for the concentration for a half-maximal effect (EC50) at human CB1 receptors and at human CB2 receptors were over 10 µM and 0.0793 µM, respectively.
In the case of `CC1(O)CCN(c2nc(C(C)(C)C)nc3c2ncn3Cc2n[nH]cc2C(F)(F)F)C1` (stereo not drawn) [Example 85, 1-[2-tert-butyl-9-[[4-(trifluoromethyl)-1H-pyrazol-3-yl]methyl]purin-6-yl]-3-methylpyrrolidin-3-ol], the EC50 on human CB1 receptors is over 10 µM; at human CB2 receptors, 0.0221 µM.
The corresponding values for `CC(C)(C)c1nc(N2CC[C@H](O)C2)c2ncn(Cc3ccccc3C(F)(F)F)c2n1` [Example 86, (3S)-1-[2-tert-butyl-9-[[2-(trifluoromethyl)phenyl]methyl]purin-6-yl]pyrrolidin-3-ol] are over 10 µM and 0.0011 µM.
Turning to `CC(C)(C)c1nc(N2CC[C@H](O)C2)c2ncn(Cc3cccc(Cl)c3)c2n1` [Example 87, (3S)-1-[2-tert-butyl-9-[(3-chlorophenyl)methyl]purin-6-yl]pyrrolidin-3-ol], the 50% effective concentration (EC50) was over 10 µM on human CB1 receptors and 0.0021 µM on human CB2 receptors.
Taken in the same sequence, the figures for `CC(C)(C)c1nc(N2CCC3(COC3)C2)c2ncn(CCC(F)(F)F)c2n1` [Example 89, 7-[2-tert-butyl-9-(3,3,3-trifluoropropyl)purin-6-yl]-2-oxa-7-azaspiro[3.4]octane] were over 10 µM and 0.573 µM.
As to `CC(C)(C)c1nc(N2CC[C@H](O)C2)c2ncn(Cc3ccccc3S(C)(=O)=O)c2n1` [Example 90, (3S)-1-[2-tert-butyl-9-[(2-methylsulfonylphenyl)methyl]purin-6-yl]pyrrolidin-3-ol], the figures for the concentration giving a half-maximal response (EC50) at human CB1 receptors and on human CB2 receptors were over 10 µM and 0.0079 µM, respectively.
Taken in the same sequence, the figures for `CC(C)(C)c1nc(N2CC[C@H](O)C2)c2ncn(Cc3cccnc3Cl)c2n1` [Example 91, (3S)-1-[2-tert-butyl-9-[(2-chloropyridin-3-yl)methyl]purin-6-yl]pyrrolidin-3-ol] were over 10 µM and 0.0017 µM.
The corresponding values for `CC(C)(C)c1nc(N2CC[C@H](O)C2)c2ncn(Cc3ncccc3Cl)c2n1` [Example 92, (3S)-1-[2-tert-butyl-9-[(3-chloropyridin-2-yl)methyl]purin-6-yl]pyrrolidin-3-ol] are over 10 µM and 0.0084 µM.
